The assay addresses T1, β-secretase(BACE) (Homo sapiens, UniProt P56817).
T1 construct: purchased Panvera
As to the kind of experiment: BACE FS1% Inhibition Assay. The class given is biochemical. Particulars: FS1 substrate. The method, boiled down:
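Human BACE (4 μg/mL working solution) preincubated 20 min at room temperature with compound, then FS1 substrate (300 μg/mL working solution) added and incubated 1 h at room temperature. Percent inhibition calculated at each compound concentration against blank and vehicle controls.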

The structures appear in SMILES notation. Bounds are passed on as bounds.

T1 sequence (P56817 46-501): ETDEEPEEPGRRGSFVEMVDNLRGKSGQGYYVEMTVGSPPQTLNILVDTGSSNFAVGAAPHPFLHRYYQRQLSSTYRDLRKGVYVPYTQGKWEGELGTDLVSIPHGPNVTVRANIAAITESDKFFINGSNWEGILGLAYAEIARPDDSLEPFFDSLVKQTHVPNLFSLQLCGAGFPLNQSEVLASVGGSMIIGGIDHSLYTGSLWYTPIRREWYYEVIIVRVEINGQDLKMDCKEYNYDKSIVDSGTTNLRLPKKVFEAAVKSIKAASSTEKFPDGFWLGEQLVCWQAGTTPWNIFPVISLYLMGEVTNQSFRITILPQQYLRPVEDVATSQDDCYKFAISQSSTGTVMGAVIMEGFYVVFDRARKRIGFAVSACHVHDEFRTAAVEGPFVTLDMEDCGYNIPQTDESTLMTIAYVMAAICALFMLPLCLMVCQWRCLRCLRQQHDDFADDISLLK

Take `CCC[C@H](CNC(=O)CCC(C)C)N1Cc2cc(Oc3ccccc3)ccc2N=C1N` [Compound 603]: where the note is “0.3 μM test compound”, the “% Inhibition (FS) 0.3 μM” value amounted to 101%. The “% Inhibition (FS) 1 μM” value (1 μM test compound) is given as 114%. Also, the “% Inhibition (FS) 3 μM” value (3 μM test compound) was determined as 122%.

Turning to `NC1=Nc2ccc(Oc3ccccc3)cc2CN1C(CNC(=O)C1CCCCC1)Cc1ccc(O)cc1` (stereo not drawn) [Compound 614], under “0.3 μM test compound”, the “% Inhibition (FS) 0.3 μM” value is given as less than 30%. In addition, for the setting “1 μM test compound”, the “% Inhibition (FS) 1 μM” value is recorded as less than 30%. Moreover, for the setting “3 μM test compound”, the “% Inhibition (FS) 3 μM” value was less than 30%.

As for `CCCC=Cc1ccc2c(c1)CN(CCNC(=O)c1cccc(C#N)c1)C(N)=N2` [Compound 568], the “% Inhibition (FS) 0.3 μM” value (0.3 μM test compound) is given as less than 30%. Besides, for the setting “1 μM test compound”, the “% Inhibition (FS) 1 μM” value is less than 30%. In addition, the “% Inhibition (FS) 3 μM” value (3 μM test compound) is on record as less than 30%.

Regarding `N#Cc1cccc(C(=O)NCCN2Cc3cc(-c4cncnc4)ccc3N=C2N)c1` [Compound 567], the “% Inhibition (FS) 0.3 μM” value (0.3 μM test compound) is given as less than 30%. Also, the “% Inhibition (FS) 1 μM” value (1 μM test compound) is less than 30%. Moreover, where the note is “3 μM test compound”, the “% Inhibition (FS) 3 μM” value is given as less than 30%.

On to `COC1CCCC(C(=O)NCCN2Cc3cc(-c4ccccc4)ccc3N=C2N)C1` (stereo not drawn) [Compound 703], for which the “% Inhibition (FS)” value reads like this: (0.3 μM test compound) less than 30%; (1 μM test compound) 46%; (3 μM test compound) 83%.

For the compound `CN(Cc1cc(-c2ccccc2)on1)C(=O)CC[C@@H](C1CCCCC1)N1Cc2cc(-c3ccccc3F)ccc2N=C1N` [Compound 724], the “% Inhibition (FS)” value by setting is: (0.3 μM test compound) 38%; (1 μM test compound) less than 30%; (3 μM test compound) 65%.

Regarding `Cc1cc(C(=O)NCCN2Cc3cc(-c4cccc(CO)c4)ccc3N=C2N)c(C)o1` [Compound 589], the “% Inhibition (FS) 0.3 μM” value (0.3 μM test compound) is less than 30%. In addition, the “% Inhibition (FS) 1 μM” value (1 μM test compound) is given as less than 30%. Also, the “% Inhibition (FS) 3 μM” value (3 μM test compound) was less than 30%.

On to `CC(=O)c1cccc(-c2ccc3c(c2)CN(CCNC(=O)Cc2ccccc2)C(N)=N3)c1` [Compound 598], for which the “% Inhibition (FS) 0.3 μM” value (0.3 μM test compound) was less than 30%. The “% Inhibition (FS) 1 μM” value (1 μM test compound) is less than 30%. Moreover, the “% Inhibition (FS) 3 μM” value (3 μM test compound) is reported as 36%.

On to `NC1=Nc2ccc(-c3ccccc3F)cc2CN1CCNC(=O)C1CCCC1` [Compound 643], for which the “% Inhibition (FS) 0.3 μM” value (0.3 μM test compound) stood at 74%. The “% Inhibition (FS) 1 μM” value (1 μM test compound) was 92%. The “% Inhibition (FS) 3 μM” value (3 μM test compound) was 110%.

Regarding `N#Cc1cccc(C(=O)NCCN2Cc3cc(Br)ccc3N=C2N)c1` [Compound 807], the inhibition at 0.3 µM (0.3 μM test compound, read-out: % Inhibition (FS)) was less than 30%. In addition, the inhibition at 1 µM (1 μM test compound, read-out: % Inhibition (FS)) was less than 30%. Further, under “3 μM test compound, read-out: % Inhibition (FS)”, the inhibition at 3 µM is less than 30%.

In the case of `NC1=Nc2ccc(Oc3ccccc3)cc2CN1CC(NC(=O)C1CCCCC1)C1CCCCC1` (stereo not drawn) [Compound 637], the “% Inhibition (FS) 0.3 μM” value (0.3 μM test compound) was less than 30%. The “% Inhibition (FS) 1 μM” value (1 μM test compound) was less than 30%. The “% Inhibition (FS) 3 μM” value (3 μM test compound) was determined as 73%.

As to `NC1=Nc2ccc(-c3cccc(CO)c3)cc2CN1CCNC(=O)Cc1ccccc1` [Compound 599], the “% Inhibition (FS) 0.3 μM” value (0.3 μM test compound) was less than 30%. Besides, the “% Inhibition (FS) 1 μM” value (1 μM test compound) is recorded as less than 30%. The “% Inhibition (FS) 3 μM” value (3 μM test compound) worked out at 65%.

Regarding `COc1cccc(Nc2ccc3c(c2)CN(Cc2cccc(C(=O)N(C)C4CCCCC4)c2)C(N)=N3)c1` [Compound 433], the “% Inhibition (FS) 0.3 μM” value (0.3 μM test compound) was less than 30%. Further, for the setting “1 μM test compound”, the “% Inhibition (FS) 1 μM” value was found to be 33%. For the same compound, for the setting “3 μM test compound”, the “% Inhibition (FS) 3 μM” value is reported as 88%.

For orientation: inhibition means the drop in the measured response relative to a control, in per cent.

(Values after patent publication US8383637B2, “2-amino-quinazoline derivatives useful as inhibitors of β-secretase (BACE)” (Jansssen Pharmaceutica N.V., priority 2004, dated 2013).)
